Results taken from patent publication US5990173A, “2,3,5-trimethyl-4-hydroxyanilide derivatives, preparation thereof and therapeutical use thereof” (Pierre Fabre Medicament, priority 1995, dated 1999).
Where two headings read alike, the source gives them in different places.

Columns and labels:
[1] = tested on: Human LDL; test: Antioxidant activity: oxidation of LDL by CuSO4 (TBARS); type: biochemical; conditions: human LDL oxidized with 10 μM CuSO4, 6 hours, TBARS at 532 nm
[2] = tested on: plasma cholesterol; test: Hypocholesterolemic activity in rats on a hypercholesterolemic diet; type: in vivo, rat; conditions: male rats, 4 days, Altromin C 1061 hypercholesterolemic diet, dose which reduces plasma cholesterol by half relative to controls
Procedure: 2) Hypocholesterolemic activity
Male rates (160-180 g) are subjected for 4 days to an Altromin C 1061 hypercholesterolemic diet, and concomitantly treated orally with compounds suspended in a 2% solution of Tween 80 in distilled water.
On day 5, the animals, which have not fasted, are anesthethized with ethyl ether and exsanguinated by drawing blood at the abdominal aorta onto EDTA. The blood is immediately centrifuged and the plasma stored at 4° C.
Plasma cholesterol is then assayed by the CHOD-PAP method (Boehringer-Mannheim Ref. 237574). The median effective dose (ED50) corresponds to the dose which reduces the plasma cholesterol concentration by half relative to control animals.

[3] = tested on: hepatic microsomal lipids (rat liver microsomes); test: Antioxidant activity: chemical peroxidation of hepatic microsomal lipids (TBARS); type: biochemical; conditions: Fe3+/ADP/dihydroxyfumaric acid
From the text: a) Chemical peroxidation.
In the presence of Fe^3+ and ADP, dihydroxyfumaric acid undergoes an autoxidation which generates oxygen free radicals. The latter bring about the peroxidation of hepatic microsomal lipids.

[4] = biological target: ACAT (acyl-CoA:cholesterol O-acyl-transferase enzyme); test: Inhibition of ACAT in vitro; type: biochemical, rat; conditions: technique of H. Chautan et al.
From the text: The compounds were studied for their inhibitory effect on ACAT and hypocholesterolemic effect in rats, on the one hand, and for their antioxidant effect, on the other hand.

[5] = Rattus norvegicus, po, 96 h, read-out: ED50

Work on `CCCCCCCCCCCCSC(C(=O)Nc1cc(C)c(O)c(C)c1C)c1ccccc1` (single isomer, unassigned; (+)) [Compound 16, (+)-2',3',5'-Trimethyl-4'-hydroxy-α-dodecylthio-α-phenylacetanilide] yielded an IC50 [1] of 4000 nM and an ED50 ([2]; oral) of 0.15 mg/kg.
For `CCCCCCCCCCC(C)(C)C(=O)Nc1c(OC)cc(OC)cc1OC` [CI 976, reference compound], the IC50 [3] was > 10000 nM, the IC50 [1] was 100000 nM and the ED50 [2, 5] was 8.3 mg/kg.
`CCCCCCCCCCCCSCC(=O)Nc1cc(C)c(O)c(C)c1C` [Compound 2, 2',3',5'-Trimethyl-4'-hydroxy-α-(dodecylthio)acetanilide] was tested, and the IC50 [4] was 300 nM, the IC50 [3] was 5000 nM and the ED50 [2, 5] was > 10 mg/kg.
For `CCCCCCCCCCCCSC(CC)C(=O)Nc1cc(C)c(O)c(C)c1C` (stereo not drawn) [Compound 3, 2',3',5'-Trimethyl-4'-hydroxy-α-(dodecylthio)butyranilide], the IC50 [4] was 310 nM, the IC50 [3] was > 10000 nM and the ED50 [2, 5] was 4 mg/kg.
For `CCCCCCCCCCCCSC(CCCC)C(=O)Nc1cc(C)c(O)c(C)c1C` (stereo not drawn) [Compound 4, 2',3',5'-Trimethyl-4'-hydroxy-α-(dodecylthio)hexananilide], the IC50 [4] was 160 nM, the IC50 [3] was 500 nM and the IC50 [1] was 10000 nM. It also gave an ED50 [2, 5] of 0.5 mg/kg.
`CCCCCCCCCCCCSC(C(=O)Nc1cc(C)c(O)c(C)c1C)C(C)C` (stereo not drawn) [Compound 5, 2',3',5'-Trimethyl-4'-hydroxy-α-(dodecylthio)isovaleranilide] gave an IC50 [4] of 630 nM, an IC50 [3] of 5000 nM and an ED50 [2, 5] of 1 mg/kg.
In the case of `CCCCCCCCCCCCSC(CCC)C(=O)Nc1cc(C)c(O)c(C)c1C` (stereo not drawn) [Compound 6, 2',3',5'-Trimethyl-4'-hydroxy-α-(dodecylthio)valeranilide], the IC50 [4] is reported as 110 nM, the IC50 [3] is reported as 300 nM and the ED50 [2, 5] is reported as 1 mg/kg.
`CCCCCCCCCCCCSC(C(=O)Nc1cc(C)c(O)c(C)c1C)c1ccccc1` (stereo not drawn) [Compound 7, 2',3',5'-Trimethyl-4'-hydroxy-α-dodecylthio-α-phenylacetanilide] gave an IC50 [3] of 600 nM, an IC50 [1] of 13000 nM and an ED50 [2, 5] of 0.2 mg/kg.
Compound `CCCCCCCCCCCCSC(C)(C)C(=O)Nc1cc(C)c(O)c(C)c1C` [Compound 8, 2',3',5'-Trimethyl-4'-hydroxy-α-(dodecylthio)isobutyranilide] has an IC50 [4] of 190 nM, an IC50 [3] of 3000 nM and an ED50 [2, 5] of 10 mg/kg.
Compound `Cc1cc(NC(=O)C(C)(C)Sc2ccc(Cl)cc2)c(C)c(C)c1O` [Compound 9, 2',3',5'-Trimethyl-4'-hydroxy-α-(p-chlorophenylthio)isobutyranilide] has an IC50 [4] of 1120 nM.
In the case of `Cc1cc(NC(=O)C(C)(C)Oc2ccc(Cl)cc2)c(C)c(C)c1O` [Compound 11, 2',3',5'-Trimethyl-4'-hydroxy-α-(p-chlorophenoxy)isobutyranilide], the IC50 [4] is reported as 1100 nM.
`CCCCCCCCCCCC[S+]([O-])C(C)(C)C(=O)Nc1cc(C)c(O)c(C)c1C` (stereo not drawn) [Compound 12, 2',3',5'-Trimethyl-4'-hydroxy-α-(dodecylsulfinyl)bobutyranilide] was tested, and the IC50 [1] was 3000 nM.
`CCCCCCCCCCCCSC(C(=O)Nc1cc(C)c(O)c(C)c1C)c1ccc(OC)cc1` (stereo not drawn) [Compound 14, 2',3',5'-Trimethyl-4-hydroxy-α-dodecylthio-α-(p-methoxyphenyl)acetanilide] showed an ED50 [2, 5] of 1 mg/kg.
With `CCCCCCCN(CCCCCSc1nc(-c2ccccc2)c(-c2ccccc2)[nH]1)C(=O)Nc1ccc(F)cc1F` [DUP 128, reference compound] the IC50 [3] was > 10000 nM, the IC50 [1] was 30000 nM and the ED50 [2, 5] was 1.1 mg/kg.
In the case of Vitamin E [reference compound], the IC50 [3] is reported as 2300 nM and the IC50 [1] is reported as 10000 nM.
